Like-named read-outs stand apart in the source and are kept apart here.
Columns and labels:
[1] = tested on: IgG2a response, IL-10; conditions: cited from earlier work; for IL-10 reduction: 1 day after complete treatment
[2] = tested on: L. (L.) infantum chagasi promastigotes; design: method as in PMID 25909893; conditions: cited from earlier work
[3] = tested on: L. (L.) amazonensis promastigotes; design: method as in PMID 25909893; conditions: cited from earlier work
[4] = tested on: L. (L.) infantum chagasi; assay: Liver parasite load (LDU) in infected BALB/c mice after chemotherapy; format: in vivo; conditions: 2.5 mg/kg/day ip 5 days
Experimental: (§1) Female BALB/c mice, 8 week old, were infected through the caudal vein with 10^7 amastigotes of L. (L.) infantum (strain IOC-L 3324) isolated from infected hamsters spleens. After 15 days of infection, mice (n = 5 per treatment) were injected by the intraperitoneal route (ip) with daily doses for 5 days of 2.5 mg/Kg of IA, IH, SMIH [30, 31] or the control drug Glucantime (Sanofi Aventis, batch 0929280802) (Fig 1). Immucillins were synthesized at the Ferrier Research Institute, Victoria University of Wellington, New Zealand. Uninfected and infected mice treated only with saline were included as controls for the treatment cohorts. On days 1, 15, and 30 after complete treatment, the animals were euthanized with CO2. Blood samples were collected for sera analysis and weight of spleens, livers and total body were determined. Spleens were also used for determination of cytokine expression. The parasite load was evaluated in Giemsa-stained liver smears and expressed in LDU values (Leishman Donovan units of Stauber = number of amastigotes per 1000 liver cell nuclei/mg of liver weight). The levels of urea, creatinine, glutamate pyruvate transaminase (GPT) and glutamate oxaloacetate transaminase ([…]) were assessed in plasma by standard clinical laboratory procedures using a Wiener lab Metrolab 2300 (Laborlife Análises Clínicas laboratory, Rio de Janeiro).

[5] = tested on: L. (L.) infantum chagasi infection; assay: Survival, body and organ weights of infected treated BALB/c mice; format: in vivo; conditions: end of the experiment
Experimental: as §1

[6] = tested on: anti-NH36 IgG, IgG1 and IgG2a antibodies; assay: Anti-NH36 antibody ELISA in sera of infected treated mice; format: in vivo, BALB/c mice
Experimental: The NH36 gene of Leishmania (L.) donovani (EMBL, Genbank and DDJB data bases, access number AY007193) with a His6tag at the C-terminal was cloned in E. coli Bl21DE3. Expression of the recombinant NH36 was obtained by induction with 0.5mM IPTG and overnight incubation at 20°C. Cultures were harvested by centrifugation and the pellets submitted to sonication during 10 minutes with cycles of 30 sec. and intervals of 55 sec. Sonicates were centrifuged and their supernatants separated for purification by column chromatography using Ni-NTA Superflow resin (Qiagen, USA). The column was eluted with a 50mM potassium phosphate, 300 mM NaCl buffer, pH: 8.0, using a 50 to 300mM imidazole gradient. The fraction containing NH36 recombinant antigen was recovered, dyalized and preserved at -80°C. Sera were collected from mice by intracardiac puncture on day 1, 15 and 30 following complete chemotherapy and assayed for the presence of anti-NH36 IgG, IgG1 and IgG2a antibodies. For that purpose the recombinant NH36 antigen (40 μg/mL) was solubilized in 0.1M sodium carbonate buffer (8.4 g of NaHCO3, 3.56 g of Na2CO3 per L; pH 9.6), and used to coat flat-bottom 96-well plates. Antibodies were detected by goat anti-mice IgG (Sigma), anti-IgG1 and anti-IgG2a peroxidase-conjugates (Southern Biotechnology Associates, Birmingham, AL, EEUU) in a 1:1000 dilution. The absorbance values at 492 ηm were compared using a 1:100 dilution of the serum samples. Results are expressed as mean values of triplicates. We used the mean average + 2 SD of serum from normal uninfected controls in order to calculate the cut-off value according to the Youden test.

[7] = tested on: splenocytes; assay: Cytokine secretion by splenocytes of uninfected treated mice incubated in vitro with the respective drug; format: cell-based, BALB/c mice; conditions: splenocytes + 10 μg/ml drug
Experimental: (§2) Female BALB/c mice, 8 weeks old, were injected intraperitoneally with daily doses 2.5 mg/Kg of IA, IH, SMIH or Glucantime during five days and euthanized on day 1, 15 and 30 after complete treatment. For evaluation of the T cell response, spleens were removed and splenocytes were incubated for 24 h in vitro with the lysate of 10^6 stationary phase promastigotes of L. (L.) infantum chagasi (MHOM/BR/1974/PP75), with 25 μg/mL NH36, at 37°C and 5% CO2, during 72 h for the assay of the cytokine expression in the supernatants. Additionally, splenocytes from uninfected BALB/c mice either untreated or previously treated with IA, IH, SMIH or Glucantime were incubated in vitro with 10 μg/mL of each respective drug. For flow cytometry analysis (FACS analysis), splenocytes were incubated for 24 h with the antigens or drugs, labeled with anti-CD4FITC (clone GK1.5), anti-CD8FITC (clone 53–6.7) monoclonal antibodies (R&D systems, Inc) or with rat anti-mouse CD19-PerCP-Cy5.5 and 100,000 lymphocyte counts were acquired using a BD FACScalibur apparatus. Data was analyzed using the Flow-Jo program. The secretion of cytokines was evaluated in the supernatants of splenocytes by an ELISA assay.

[8] = tested on: CD4+, CD8+ and CD19+ lymphocytes; assay: CD4+, CD8+ and CD19+ lymphocyte frequencies by flow cytometry in splenocytes of uninfected treated mice; format: cell-based, BALB/c mice; conditions: for CD8+ T cell frequencies: day 1 after treatment
Experimental: as §2

[9] = tested on: L. (L.) infantum chagasi; assay: Liver parasite load in infected CB hamsters after chemotherapy; format: in vivo, CB golden hamster; conditions: 2.5 mg/kg/day ip 5 days, 10 days after complete treatment; for liver parasite load: untreated 16,334 LDU
Experimental: (§3) The efficacy of immucillins was also assayed in the CB golden hamster susceptible model. Females, 8 weeks old, were infected through the intracardiac route with 2 x 10^7 amastigotes of L. (L.) infantum chagasi (strain IOC-L 3324) isolated from infected hamsters spleens. Thirty days after infection, the animals were treated with 2.5 mg/kg daily doses of Glucantime, IA, IH or SMIH, through the ip route, for five days. Ten days after complete treatment the animals were euthanized, their parasite load was determined in livers and the renal function evaluated in sera samples as described above.

[10] = Body weight and renal/hepatic markers in sera of infected treated hamsters; format: in vivo, CB golden hamster
Experimental: as §3

[11] = target: L. (L.) donovani recombinant NH36; design: method as in PMID 25909893; conditions: ref 29; read-out: Ki, inhibition of NH36 enzymatic activity; cited from earlier work
[12] = tested on: L. (L.) infantum chagasi amastigotes; design: method as in PMID 25909893; conditions: 10 μM; cited from earlier work
[13] = tested on: macrophage; design: method as in PMID 25909893; conditions: 10 μM; cited from earlier work
[14] = tested on: human lymphocytes; conditions: cited from earlier work
[15] = cited from earlier work
[16] = tested on: visceral leishmaniasis; conditions: oral therapy, cited from earlier work
[17] = tested on: amastigotes; conditions: cited from earlier work
[18] = tested on: blood PNP; design: method as in PMID 19170524; conditions: mice; cited from earlier work
[19] = Renal and hepatic function markers in plasma of mice; format: in vivo, BALB/c mice
Experimental: as §1

[20] = day 1 after complete treatment, vs untreated infected controls
[21] = day 30 after complete treatment

1,3,4-tiadiazolium-2 aminide
IL-10 reduction [1]: 75%

Nc1nc2c(CN3C[C@H](CO)[C@@H](O)C3)c[nH]c2c(=O)[nH]1 [DIG]
concentrations inhibiting growth of promastigotes in vitro [2]: nanomolar to micromolar | concentrations inhibiting growth of promastigotes in vitro [3]: nanomolar to micromolar

O=c1[nH]cnc2c(CN3C[C@H](CO)[C@@H](O)C3)c[nH]c12 [DIH]
concentrations inhibiting growth of promastigotes in vitro [2]: nanomolar to micromolar | concentrations inhibiting growth of promastigotes in vitro [3]: nanomolar to micromolar

Nc1ncnc2c([C@@H]3N[C@H](CO)[C@@H](O)[C@H]3O)c[nH]c12 [IA]
reduction of liver parasite load (LDU) [4, 20]: 45% | reduction of liver parasite load (LDU) [4, 21]: 89% | survival [5]: 100% | anti-NH36 IgG1 in infected untreated controls higher than in treated mice ([6]; day 1): 69% | anti-NH36 IgG1 in infected untreated controls higher than in treated mice ([6]; day 15): 64% | anti-NH36 IgG1 in infected untreated controls higher than in treated mice ([6]; day 30): 57% | IL-10 levels [7]: 113 pg/mL | CD19 B cell frequencies enhanced by previous treatment [8]: ~ 30% | CD4+ T cell frequency, higher proportion than previously untreated controls ([8]; day 1): 57% | CD8+ T cell frequencies [8]: increased | CD4+ T cell frequency, higher proportion than previously untreated controls ([8]; day 15): 21% | CD4+ T cell frequency, higher proportion than previously untreated controls ([8]; day 30): 29% | liver parasite load reduction [9]: 86% | liver parasite load [9]: 2,038 LDU | body weight ([10]; infected hamsters): increase in body weight | decrease of creatinine ([10]; infected hamsters): 66% | Ki [11]: 80 nM | concentrations inhibiting growth of promastigotes in vitro [2]: nanomolar to micromolar | concentrations inhibiting growth of promastigotes in vitro [3]: nanomolar to micromolar | inhibition of intracellular replication of amastigotes [12]: 95% | damage to macrophage viability [13]: no apparent damage | mutagenicity or chromosomal aberrations [14]: did not induced mutagenicity or chromosomal aberrations | metabolic stability ([15]; mouse, rat, guinea pig and cynomolgus macaque): metabolically stable | clearance from plasma ([15]; ref 37): rapid clearance

O=c1[nH]cnc2c([C@@H]3N[C@H](CO)[C@@H](O)[C@H]3O)c[nH]c12 [IH]
reduction of liver parasite load (LDU) [4, 21]: 85% | survival [5]: 100% | CD19 B cell frequencies enhanced by previous treatment [8]: sustained | liver parasite load reduction [9]: 70% | liver parasite load [9]: 4,905 LDU | decrease of creatinine ([10]; hamster, in vivo): 63% | reduction of GOT levels ([10]; hamster, in vivo): ~ 30% | reduction of blood urea levels ([10]; hamster, in vivo): ~ 50% | body weight ([10]; infected hamsters): increase in body weight | Ki [11]: 19 nM | concentrations inhibiting growth of promastigotes in vitro [2]: nanomolar to micromolar | concentrations inhibiting growth of promastigotes in vitro [3]: nanomolar to micromolar | inhibition of intracellular replication of amastigotes [12]: 95% | damage to macrophage viability [13]: no apparent damage

CCCCCCCCCCCCCCCCOP(=O)([O-])OCC[N+](C)(C)C [Miltefosine]
cure rates ([16]; Brazil): 50% | success rates ([16]; India): 94% | reduction in parasite burden ([17]; ref 46): 50% | enhancement of the IgG2a response ([1]; ref 46): 75%

Nc1nc(O)c2[nH]cc(CNC(CO)CO)c2n1 [SMIG]
concentrations inhibiting growth of promastigotes in vitro [2]: nanomolar to micromolar | concentrations inhibiting growth of promastigotes in vitro [3]: nanomolar to micromolar

O=c1[nH]cnc2c(CNC(CO)CO)c[nH]c12 [SMIH]
reduction of liver parasite load (LDU) [4, 21]: 85% | survival [5]: 100% | CD4+ T cell frequencies (in words) [8]: lower CD4+ T cell frequencies | CD19 B cell frequencies enhanced by previous treatment [8]: ~ 30% | CD8+ T cell frequencies [8]: diminished | liver parasite load reduction [9]: no cure | reduction of blood urea levels ([10]; infected hamsters): ~ 50% | concentrations inhibiting growth of promastigotes in vitro [2]: nanomolar to micromolar | concentrations inhibiting growth of promastigotes in vitro [3]: nanomolar to micromolar | inhibition of intracellular replication of amastigotes [12]: 95% | damage to macrophage viability [13]: no apparent damage | oral availability [18]: orally available

N.N.[Cl][Pt][Cl] [cisplatin]
reduction in parasite burden ([17]; ref 30): 75% | reduction in parasite burden ([17]; ref 31): 80% | reduction in parasite burden ([17]; ref 32): 50% | IL-10 reduction [1]: 50% | enhancement of the IgG2a response ([1]; ref 30, 31): 50–55%

Glucantime [reference compound]
reduction of liver parasite load (LDU) [4, 20]: 46% | reduction of liver parasite load (LDU) [4, 21]: 88% | survival [5]: 100% | anti-NH36 IgG2a increase vs untreated infected controls ([6]; day 1): 67% | IL-10 levels [7]: 509 pg/mL | CD4+ T cell frequencies (in words) [8]: high CD4+ T cell increase (p<0.05) only on day 1 | CD19 B cell frequencies enhanced by previous treatment [8]: ~ 30% | CD8+ T cell frequencies [8]: increased | renal (urea and creatinine) and hepatic (GOT and GTP) toxicity [19]: Pronounced toxicity | increase in GOT serum level ([19]; 2.5 mg/kg/day ip 5 days): 6 fold | increase in GPT serum level ([19]; 2.5 mg/kg/day ip 5 days): 9 fold | increase in creatinine serum level ([19]; 2.5 mg/kg/day ip 5 days): 9 fold | increase in urea serum level ([19]; 2.5 mg/kg/day ip 5 days): 4 fold | body weight ([10]; infected hamsters): increase in body weight | decrease of creatinine ([10]; infected hamsters): 41% | reduction of blood urea levels ([10]; infected hamsters): ~ 50%
